From patent US9403850B2, “Beta-lactamase inhibitors” (priority 2013, dated 2016) come the findings set out here.

For assay [1], the target named is T1, VIM-2 (Escherichia coli, UniProt Q5U7L7).
T1 construct: made in house; host or cells: E. coli BL21(DE3)
Description: β-Lactamase enzyme inhibition assay, VIM-2 (nitrocefin substrate). It counts as biochemical. To be noted: nitrocefin substrate 100 μM, 15 min preincubation at 37° C.; read-out: IC50, Class B VIM-2. As for the experimental part: For Vim-2 metallo β-lactamase, the procedure was identical with the following exceptions, first the protein was not pH adjusted to pH 5 with 50 mM sodium acetate, second, the chromatography step was changed to a 5 ml Q sepharose anion exchange column pre-equilibrated with 50 mM Hepes pH 7.5, and elution of the protein was achieved by a linear gradient of NaCl (0-600 mM). Finally, the VIM-2 purification required a second run (3rd step) on the Q sepharose anion exchange column to achieve acceptable purity (>90%).
An equal volume of diluted enzyme stock was added, and the plates were incubated at 37° C. for 15 min. Nitrocefin was used as substrate for p99 AmpC, VIM-2 and OXA-1 and dispensed into each well at a final concentration of 100 μM. Absorbance at 486 nm was immediately monitored for 10 min using a Biotek Powerwave XS2 microplate spectrophotometer using the GEN5 softweare package (Biotek Instruments, Winooski Vt.). In an analogous fashion, imipenem was used as substrate for Kpc-2 and Cefotaxime was used for SHV-5, while changes in absorbance upon hydrolysis of the β-lactam ring were monitored at 300 nm and 260 nm respectively in UV-transparent 96-well microtiter assay plates. Maximum rates of hydrolysis were compared to those in control wells (without inhibitors), and percentages of enzyme inhibition were calculated for each concentration of inhibitor. The concentration of inhibitor needed to reduce the initial rate of hydrolysis of substrate by 50% (IC50) was calculated as the residual activity of β-lactamase at 486 nm using GraFit version 7 kinetics software package (Erithacus Software, Surrey, UK).
Using the methodology described above, examples of the current invention were evaluated for their ability to inhibit β-lactamase enzymes from all four Ambler classifications (A through D). […] NT=Not tested.

Assay [2] concerns E. coli ESBL4 expressing CTX-M-15. The assay can be described thus: Broth microdilution MIC assay, partner ceftazidime.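 Further: ceftazidime held fixed at 4 µg/mL.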 Type of assay: cell-based. As to conditions: Escherichia coli, read-out: MIC of Exemplary Compounds in presence of fixed β-lactams, Fixed CAZ, E. coli ESBL4 CTX-M-15. On the technique in general: Broth dilution looks for growth in wells or tubes with falling amounts of substance.

For assay [3], the system named is E. cloacae 144200 expressing Class C P99 AmpC. Description: Broth microdilution MIC assay, partner ceftazidime.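 Further: ceftazidime held fixed at 4 µg/mL.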 Type of assay: cell-based. To be noted: Enterobacter cloacae, read-out: MIC of Exemplary Compounds in presence of fixed β-lactams, Fixed CAZ, E. cl. 144200 p99 AmpC.
The test system of assay [4] is K. pneumoniae 156319 expressing KPC-3. The assay can be described thus: Broth microdilution MIC assay, partner meropenem. It counts as cell-based. As to conditions: Klebsiella pneumoniae, read-out: MIC of Exemplary Compounds in presence of fixed β-lactams, Fixed Mero, K.P. 156319 KPC-3.
The test system of assay [5] is P. aeruginosa Ps296 expressing VIM-2. The assay can be described thus: Broth microdilution MIC assay, partner meropenem. Type of assay: cell-based. To be noted: Pseudomonas aeruginosa, read-out: MIC of Exemplary Compounds in presence of fixed β-lactams, Fixed Mero, P. aerug. Ps296 VIM-2.
Assay [6] relates to K. pneumoniae A-1797 expressing KPC-2 and VIM-4. The assay can be described thus: Broth microdilution MIC assay, partner meropenem. It counts as cell-based. As to conditions: Klebsiella pneumoniae, read-out: MIC of Exemplary Compounds in presence of fixed β-lactams, Fixed Mero, K.P. A-1797 KPC-2 VIM-4.
For assay [7], the system named is S. aureus MSSA-7 producing penicillinase PC-1. Description: Broth microdilution MIC assay, partner piperacillin. It counts as cell-based. To be noted: Staphylococcus aureus, fixed piperacillin 4 μg/mL, read-out: MIC of Exemplary Compounds in presence of fixed β-lactams, Fixed Pip, S. aureus MSSA-7 PC-1.

By IC50 is commonly meant the concentration that gives 50% inhibition. As usually defined, the MIC is the least concentration at which growth counts as inhibited.

`O=C(N[C@H]1Cc2cccc(C(=O)O)c2OB1O)c1ccc2ncccc2c1` [Example 28, (R)-2-hydroxy-3-(quinoline-6-carboxamido)-3,4-dihydro-2H-benzo[e][1,2]oxaborinine-8-carboxylic acid]: the IC50 in assay [1] is 1 to 10 µM. Further, the MIC was less than 4 µg/mL in assay [2]; less than 4 µg/mL in assay [3]; less than 4 µg/mL in assay [4]; greater than 32 µg/mL in assay [5]; 8 to 32 µg/mL in assay [6]; less than 4 µg/mL in assay [7].
`O=C(N[C@H]1Cc2cccc(C(=O)O)c2OB1O)c1ccc2nccnc2c1` [Example 29, (R)-2-hydroxy-3-(quinoxaline-6-carboxamido)-3,4-dihydro-2H-benzo[e][1,2]oxaborinine-8-carboxylic acid]: the IC50 in assay [1] is 1 to 10 µM. For the same molecule, the MIC in assay [2] is less than 4 µg/mL; in assay [3], less than 4 µg/mL; in assay [4], less than 4 µg/mL; in assay [5] it was greater than 32 µg/mL; in assay [6] it was greater than 32 µg/mL; in assay [7] it was less than 4 µg/mL.
As for `O=C(N[C@H]1Cc2cccc(C(=O)O)c2OB1O)c1ccc2cc[nH]c2c1` [Example 30, (R)-2-hydroxy-3-(1H-indole-6-carboxamido)-3,4-dihydro-2H-benzo[e][1,2]oxaborinine-8-carboxylic acid], in assay [1], the IC50 was in the range of 0.1 to 1 µM. In addition, the minimal inhibitory concentration (MIC) in assay [2] was less than 4 µg/mL; in assay [3], less than 4 µg/mL; in assay [4], less than 4 µg/mL; in assay [5] it was less than 4 µg/mL; in assay [6] it was 8 to 32 µg/mL; in assay [7], less than 4 µg/mL.
Consider `O=C(O)c1cccc2c1OB(O)[C@@H](NC(=O)c1cccc3cc[nH]c13)C2` [Example 31, (R)-2-hydroxy-3-(1H-indole-7-carboxamido)-3,4-dihydro-2H-benzo[e][1,2]oxaborinine-8-carboxylic acid], for which, in assay [1], the IC50 lay in the range of 1 to 10 µM. Moreover, the MIC in assay [2] was less than 4 µg/mL; in assay [3] it was less than 4 µg/mL; in assay [4] it was less than 4 µg/mL; in assay [5], 8 to 32 µg/mL; in assay [6], greater than 32 µg/mL; in assay [7], less than 4 µg/mL.
For `O=C(O)c1cccc2c1OB(O)[C@@H](NC(=O)c1cccc3[nH]ccc13)C2` [Example 32, (R)-2-Hydroxy-3-[(1H-indole-4-carbonyl)-amino]-3,4-dihydro-2H-benzo[e][1,2]oxaborinine-8-carboxylic acid], the IC50 in assay [1] is 0.1 to 1 µM. The MIC in assay [2] is less than 4 µg/mL; in assay [3], less than 4 µg/mL; in assay [4] it was less than 4 µg/mL; in assay [5], less than 4 µg/mL; in assay [6], greater than 32 µg/mL; in assay [7], less than 4 µg/mL.
`O=C1Cc2cc(C(=O)N[C@H]3Cc4cccc(C(=O)O)c4OB3O)ccc2N1` [Example 33, (R)-2-Hydroxy-3-[(2-oxo-2,3-dihydro-1H-indole-5-carbonyl)-amino]-3,4-dihydro-2H-benzo[e][1,2]oxaborinine-8-carboxylic acid]: the IC50 in assay [1] lay within 0.1 to 1 µM. In addition, the MIC in assay [2] is less than 4 µg/mL; in assay [3] it was less than 4 µg/mL; in assay [4] it was less than 4 µg/mL; in assay [5], less than 4 µg/mL; in assay [6], 8 to 32 µg/mL; in assay [7], less than 4 µg/mL.
For the molecule `O=C(N[C@H]1Cc2cccc(C(=O)O)c2OB1O)c1ccc2nc[nH]c2c1` [Example 34, (R)-3-[(3H-Benzoimidazole-5-carbonyl)-amino]-2-hydroxy-3,4-dihydro-2H-benzo[e][1,2]oxaborinine-8-carboxylic acid], in assay [1], the IC50 lay within 0.1 to 1 µM. The MIC in assay [2] is less than 4 µg/mL; in assay [3], less than 4 µg/mL; in assay [4], less than 4 µg/mL; in assay [5], less than 4 µg/mL; in assay [6], 8 to 32 µg/mL; in assay [7], less than 4 µg/mL.
